# Measured values: patent US20240368676A1, “KITS FOR DETECTING ONE OR MORE TARGET ANALYTES IN A SAMPLE AND METHODS OF MAKING AND USING THE SAME” (Meso Scale Technologies, LLC., priority 2020, published 2024)
# Like-named read-outs stand apart in the source and are kept apart here.
# How the values were obtained:
# [1] = system: rs2273535 (AURKA F31J); experiment: Lung cancer SNP panel OLA on PCR-amplified cell line DNA; settings: PCR-amplified DNA from HIL-60 cell line
# Procedure: (§1) The probe sequences used for each mutation are provided in Tables 42 (upstream) and 43 (downstream), below.
# (§2) To test the probes for each mutation, probes from either the 1st or 2nd strand were chosen and tested against DNA extracted from a HIL-60 cell line. DNA was extracted using the Gentra Puregene Cell Kit (Qiagen Cat #158388) and 10 ng DNA was amplified using the MyTaq HS Master Mix (Bioline Cat #BIO-25045) and assay-specific PCR forward and revers primers, shown in Tables 44 and 45, respectively.
# (§3) Following amplification, OLA was performed as described in Example 7 and the frequency of WT and Mutant alleles was determined.
# [2] = system: rs1801270 (CDKN1A c.93C>A); experiment: as above; settings: PCR-amplified DNA from HIL-60 cell line
# Procedure: as §1, §2, §3
# [3] = system: rs17879961 (CHEK2 c.599T>C); experiment: as above; settings: PCR-amplified DNA from HIL-60 cell line
# Procedure: as §1, §2, §3
# [4] = system: spot with the capture oligonucleotide with SEQ ID NO: 5; experiment: Comparison of blocking conditions for preparing arrays (cross-reactivity from cross-contamination); type: binding
# Procedure: Blocking conditions for removing excess capture oligonucleotides from arrays were compared. Plates with printed arrays were prepared as described in Example 2 and blocked and washed as described in Example 4, except for varying the composition of the blocking solution. Specificity of the arrays was then characterized as described in Example 4.
# [5] = system: rs212090 (ABCC1 c.*866T>A); experiment: Lung cancer SNP panel OLA on PCR-amplified cell line DNA; settings: PCR-amplified DNA from HIL-60 cell line
# Procedure: as §1, §2, §3
# [6] = system: rs1801133 (MTHFR C677T); experiment: as above; settings: PCR-amplified DNA from HIL-60 cell line
# Procedure: as §1, §2, §3
# [7] = system: rs3842 (ABCB1 c.*193A>G); experiment: as above; settings: PCR-amplified DNA from HIL-60 cell line
# Procedure: as §1, §2, §3
# [8] = system: rs8034191 (LOC123688 or HYKK c.337+256T>C); experiment: as above; settings: PCR-amplified DNA from HIL-60 cell line
# Procedure: as §1, §2, §3
# [9] = system: miR-122; settings: reported by Rissin et al., PLOS One (2017); cited from earlier work
# [10] = system: miR-122; experiment: miRNA detection using an RNase protection assay (chimeric DNA/RNA probe, ECL); settings: synthetic miR-122 miRNA
# Text: An RNase protection assay can be used for miRNA quantification. In the assay, a DNA/RNA chimeric probe is used that contains an oligonucleotide tag sequence that is complementary a capture oligonucleotide sequence and a miRNA complementary sequence. The oligonucleotide tag sequence can be a single stranded DNA (ssDNA) sequence included on the 5′ end of the chimeric probe and the miRNA complementary sequence can be a single stranded RNA (ssRNA) sequence at the 3′ end of the chimeric probe, along with a terminal 3′ biotin.
# Briefly, miRNA can be detected as follows: • 1). Hybridize miRNA to the chimeric probe in a thermal cycler to form a hybridization product; • 2). Block assay plate using one or more known blocking agent; • 3). Add hybridization product with formamide to the blocked assay plate under conditions in which the oligonucleotide tag sequence of the hybridization product can hybridize to the capture oligonucleotides on the assay plate. Incubate at 37° C.; • 4). Perform on-plate digestion of ssRNA with RNase A or RNase I (30° C.-37° C.) to digest the following: • a). ssRNA that has not been hybridized to the probe; • b). Probe hybridized to the plate without the complementary miRNA; and • c). […] Add Read Buffer B to assay plate and measure ECL signal generation with MSD Imager; and • 7). Compare the results against a calibration curve for quantification. […]
# [11] = system: rs1051730 (CHRNA3 D398N); experiment: Lung cancer SNP panel OLA on PCR-amplified cell line DNA; settings: PCR-amplified DNA from HIL-60 cell line
# Procedure: as §1, §2, §3
compound,measurement,setting,value
"AURKA rs2273535 (DNA CTTCCATTCTAGGCTACAGCTC; listed as DNA, chemistry not given here)",% Mutant,[1],0.5%
same,% Wild-type,[1],99.5%
same,Genotype,[1],Homozygous (WT) (Measured mutation percentages <20% were classified as homozygous wildtype samples)
"CDKN1A rs1801270 (DNA TCGAAGTTCCATCGCTCAC; listed as DNA, chemistry not given here)",% Mutant,[2],0.1%
same,% Wild-type,[2],99.9%
same,Genotype,[2],Homozygous (WT) (Measured mutation percentages <20% were classified as homozygous wildtype samples)
"CHEK2 rs17879961 (DNA TCCATTGCCACTGTGATCTTC; listed as DNA, chemistry not given here)",% Mutant,[3],0.8%
same,% Wild-type,[3],99.2%
same,Genotype,[3],Homozygous (WT) (Measured mutation percentages <20% were classified as homozygous wildtype samples)
N[C@@H](CS)C(=O)O [cysteine],cross-reactivity,[4]; cysteine added to the Tris/Triton formulation,≤ 0.01%
same,blocking effectiveness,"[4]; cysteine concentrations ranging from 5 to 50 to 500 mM, separate experiments",effective at blocking
"ABCC1 rs212090 (DNA AGGCCATCTCCTTAATATTTACCC; listed as DNA, chemistry not given here)",% Mutant,[5],48.6%
same,% Wild-type,[5],51.4%
same,Genotype,[5],Heterozygous (mutation percentages between 30% and 70% were classified as heterozygous (50% mutation))
"MTHFR rs180113 (DNA CTTCACAAAGCGGAAGAATGTG; listed as DNA, chemistry not given here)",% Mutant,[6],42.8%
same,% Wild-type,[6],57.2%
same,Genotype,[6],Heterozygous (mutation percentages between 30% and 70% were classified as heterozygous (50% mutation))
"ABCB1 rs3842 (DNA AGCAAGGCAGTCAGTTACAG; listed as DNA, chemistry not given here)",% Mutant,[7],52.4%
same,% Wild-type,[7],47.6%
same,Genotype,[7],Heterozygous (mutation percentages between 30% and 70% were classified as heterozygous (50% mutation))
"LOC123688 rs8034191 (DNA CCCTGATTTCCACAAGTCC; listed as DNA, chemistry not given here)",% Mutant,[8],1.0%
same,% Wild-type,[8],99.0%
same,Genotype,[8],Homozygous (WT) (Measured mutation percentages <20% were classified as homozygous wildtype samples)
"miR-122: synthetic miR-122 miRNA, target sequence in Table 47 (UGGAGUGUGACAAUGGUGUUUG; listed as RNA, chemistry not fully specified; the letters are possibly those of the target site)",concentration detected,[9],500 fM
same,concentration detected,[10],160 fM
"CHRNA3 rs1051730 (DNA CGGATGTACAGCGAGTATGTG; listed as DNA, chemistry not given here)",% Mutant,[11],0.1%
same,% Wild-type,[11],99.9%
same,Genotype,[11],Homozygous (WT) (Measured mutation percentages <20% were classified as homozygous wildtype samples)
